Measurements from patent US11207312B2, “Metallo-beta-lactamase inhibitors and methods of use thereof” (priority 2017, dated 2021).

Tests used:
[1] = biological target: NDM-1 (Klebsiella pneumoniae, UniProt C7C422); experiment: biochemical; type: biochemical; conditions: CCF2-FA fluorescence assay, 2 hours at 25° C.
Description: (§1) The Class B enzyme activities were measured in the presence of the test inhibitor in a fluorescence assay against a commercially available substrate consisting of a cephalosporin core linking 7-hydroxycoumarin to fluorescein (CCF2-FA). The enzyme (NDM-1, IMP-1 or VIM-1) and the substrate were diluted in 100 mM KH2PO4 buffer (pH 7) containing 0.005% Tween-20 and 10 μM ZnSO4. In the assay, the final concentration of enzyme was 1 pM, 2 pM and 30 pM for NDM-1, IMP-1 and VIM-1, respectively, and the final concentration of CCF2-FA was 1.25 μM. The test inhibitor was dissolved in dimethylsulfoxide and diluted 1:50 in the assay, resulting in a final concentration range of 20 μM to 0.00063 μM. In a 384-well microplate, the test inhibitor was incubated with the metallo-β-lactamase enzyme and the substrate for 2 hours at 25° C. Fluorescence at 460 nm following excitation at 405 nm was measured. The IC50 value was determined from semi-logarithmic plots of enzyme inhibition versus inhibitor concentration, with a curve generated using a 4-parameter fit.

[2] = biological target: IMP-1 (Serratia marcescens, UniProt P52699); experiment: biochemical; conditions: CCF2-FA fluorescence assay, 2 hours at 25° C.; read-out: IMP1 IC50
Description: as §1

[3] = biological target: VIM-1 (Pseudomonas aeruginosa (strain ATCC 15692 / DSM 22644 / CIP 104116 / JCM 14847 / LMG 12228 / 1C / PRS 101 / PAO1), UniProt A0A0F7KYQ8); experiment: biochemical; conditions: CCF2-FA fluorescence assay, 2 hours at 25° C.; read-out: VIM1 IC50
Description: as §1

[4] = biological target: VIM-2 (Escherichia coli, UniProt Q5U7L7); experiment: biochemical; conditions: CCF2-FA fluorescence assay; read-out: VIM2 IC50
[5] = test system: Escherichia coli expressing NDM-1 (CLB30016); type: cell-based; conditions: with imipenem 1 μg/ml; 95% inhibition of bacterial growth
Description: (§2) The bacterial strains tested included the clinical strains Escherichia coil expressing NDM-1 (CLB30005, CLB30016), Serratia marcescens expressing IMP-1 (CL5741), and Klebsiella pneumoniae expressing VIM-1 (H-LMA599644). Inhibitor activity was measured in the presence and absence of imipenem in a 384-well microplate.
(§3) The clinical strains CLB30016, CL5741 and IHMA599644 were grown on trypticase soy agar containing 5% sheep's blood. The bacteria on agar plates were incubated at 35° C. with humidity overnight. The following day, individual colonies from each clinical strain were picked and resuspended in 5 ml saline to attain an OD600 of […], for CLB30016, C15741 and IHMA599644, respectively. These were further diluted 1:100 into 1.1× CAMHB and used to inoculate the test wells as described below.
(§4) Imipenem in 10 mM 3-(N-morpholino)propanesulfonic acid (MOPS, pH 7) was stored in single use aliquots at −80° C. […] On the day of the assay, 4 μl of antibiotic was added to 45 μl of bacteria followed by 1 μl of test compound and mixed by pipetting and with an orbital shaker. The concentration of antibiotic used in the assay was 1 μg/ml. Microplates were covered and incubated at 35° C. for 22 hours to 24 hours. At the end of the incubation, absorbance was determined using a spectrophotometer. The synergistic concentration of MBLI was determined by identifying the lowest concentration of test compound in the presence of a given concentration of antibiotic that was required to inhibit 95% of the growth of the bacteria. The results for Examples 1-209 are reported in Table 1, expressed as the concentration of compound that potentiated the action of antibiotic (imipenem) affecting 95% inhibition of bacterial growth (MITC95).

[6] = test system: Klebsiella pneumoniae expressing VIM-1 (IHMA599644); type: cell-based; conditions: with imipenem 1 μg/ml; 95% inhibition of bacterial growth
Description: as §2, §3, §4

[7] = test system: Serratia marcescens expressing IMP-1 (CL5741); type: cell-based; conditions: with imipenem 1 μg/ml; 95% inhibition of bacterial growth
Description: as §2, §3, §4

[8] = test system: P. aeruginosa MB9798 (efflux+, IMP-1 plasmid); conditions: for MB9798 MITC95 P. aeruginosa uM Efflux WT: efflux + (MB9798) strain, imipenem at 2 μg/mL, in the presence of a class A, C, D serine β-lactamase inhibitor closely related to relebactam; for Efflux ratio: fold difference between efflux+ (MB9798) and efflux− (MB9799) strains
Text: (§5) The strain background is Pseudomonas aeruginosa PAO1. A wild-type (M135919) and an isogenic strain in which multiple efflux pumps have been disrupted genetically were used. The MBL IMP-1, obtained from a clinical isolate was introduced into the strain pair by the following process:
(§6) The plasmid DNA was transformed into parental MB5919 (oprD+, efflux+, inducible AmpC) and MB5890 (oprD+, efflux−, inducible AmpC) isogenic strains by electroporation.
(§7) The strain set was then used as a pair to determine the effect of metallo-β-lactamase inhibitors of Formula I on the MIC of imipenem and/or ceftazidime. A fixed concentration of antibiotic is included in standard microbroth MIC tests, usually at the CLSI breakpoint concentration, A fixed amount of a class A/C beta-lactamase inhibitor is also included to inhibit the resident Pseudomonas AmpC enzyme. A serial titration of the metallo-β-lactamase inhibitor was included and the concentration of metallo-β-lactamase inhibitor which restores susceptibility of the strain to the included antibiotic was recorded. That concentration of metallo-β-lactamase inhibitor was then compared between the two strains to determine the fold difference between the efflux+(MB9798) and efflux−(MI39799) strains, which indicates the extent to which the MBLi is subject to efflux.

[9] = test system: P. aeruginosa MB9799 (efflux-, IMP-1 plasmid); type: cell-based, Pseudomonas aeruginosa; conditions: efflux − (MB9799) strain; imipenem at 2 μg/mL; in the presence of a class A, C, D serine β-lactamase inhibitor closely related to relebactam
Text: as §5, §6, §7

IMP-1, sequence (P52699 whole entry, looked up, species assumed): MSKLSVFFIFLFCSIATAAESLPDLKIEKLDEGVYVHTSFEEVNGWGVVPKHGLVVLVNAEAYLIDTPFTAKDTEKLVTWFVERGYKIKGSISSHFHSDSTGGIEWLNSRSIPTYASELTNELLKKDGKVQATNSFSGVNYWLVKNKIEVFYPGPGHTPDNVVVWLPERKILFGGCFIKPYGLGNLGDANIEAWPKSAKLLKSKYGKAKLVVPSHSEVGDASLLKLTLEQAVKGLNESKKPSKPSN
NDM-1, sequence (C7C422 whole entry, looked up, species assumed): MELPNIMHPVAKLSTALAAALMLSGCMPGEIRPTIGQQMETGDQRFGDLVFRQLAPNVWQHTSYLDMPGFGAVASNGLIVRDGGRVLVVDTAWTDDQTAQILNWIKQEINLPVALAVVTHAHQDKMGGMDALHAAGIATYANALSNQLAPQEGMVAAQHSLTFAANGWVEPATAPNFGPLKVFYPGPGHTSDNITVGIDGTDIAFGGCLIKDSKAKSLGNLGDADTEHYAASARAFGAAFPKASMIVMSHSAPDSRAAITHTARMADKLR

## NS(=O)(=O)c1c(S(=O)(=O)C2CNC2)ccc(N2CC[C@H](CO)[C@H](F)C2)c1-c1nnn[nH]1 [Example 61, 6-(azetidin-3-ylsulfonyl)-3-[(3S,4R)-3-fluoro-4-(hydroxymethyl)piperidin-1-yl]-2-(1H-tetrazol-5-yl)benzenesulfonamide]
[1]
  IC50: 0.9 nM
[2]
  IC50: 1.28 nM
[3]
  IC50: 0.44 nM
[4]
  IC50: 2.12 nM
[5]
  CLB30016 E. coli MITC95 NDM: 1.56 µM
[6]
  IHMA599644 K. pneumoniae MITC95 VIM: 6.25 µM
[7]
  CL5741 S. marcescens MITC95 IMP: 3.13 µM
[8]
  MB9798 MITC95 P. aeruginosa uM Efflux WT: 6.25 µM
  Efflux ratio: 4.00
[9]
  MB9799 MITC95 P. aeruginosa uM Efflux Mutant: 1.56 µM

## NS(=O)(=O)c1c(S(=O)(=O)N[C@@H]2CCNC2)ccc(N2CCC(OCCO)CC2)c1-c1nnn[nH]1 [Example 88, 4-[4-(2-hydroxyethoxy)piperidin-1-yl]-N1-[(3R)-pyrrolidin-3-yl]-3-(1H-tetrazol-5-yl)benzene-1,2-disulfonamide]
[1]
  IC50: 0.08 nM
[2]
  IC50: 0.13 nM
[3]
  IC50: 0.19 nM
[4]
  IC50: 0.97 nM
[5]
  CLB30016 E. coli MITC95 NDM: 12.50 µM
[6]
  IHMA599644 K. pneumoniae MITC95 VIM: 12.50 µM
[7]
  CL5741 S. marcescens MITC95 IMP: 12.50 µM
[8]
  MB9798 MITC95 P. aeruginosa uM Efflux WT: 6.25 µM
  Efflux ratio: 1.00
[9]
  MB9799 MITC95 P. aeruginosa uM Efflux Mutant: 6.25 µM

## NC[C@@H](O)CNS(=O)(=O)c1ccc(N2CCC(CCn3cccn3)CC2)c(-c2nn[nH]n2)c1S(N)(=O)=O [Example 27, (R)-4-(4-(2-(1H-pyrazol-1-yl)ethyl)piperidin-1-yl)-N^1-(3-amino-2-hydroxypropyl)-3-(2H-tetrazol-5-yl)benzene-1,2-disulfonamide]
[1]
  IC50: 0.07 nM
[2]
  IC50: 0.05 nM
[3]
  IC50: 0.06 nM
[4]
  IC50: 0.18 nM
[5]
  CLB30016 E. coli MITC95 NDM: 3.13 µM
[6]
  IHMA599644 K. pneumoniae MITC95 VIM: 6.25 µM
[7]
  CL5741 S. marcescens MITC95 IMP: 3.13 µM
[8]
  MB9798 MITC95 P. aeruginosa uM Efflux WT: 25.00 µM
  Efflux ratio: 15.99
[9]
  MB9799 MITC95 P. aeruginosa uM Efflux Mutant: 1.56 µM

## NS(=O)(=O)c1c(S(=O)(=O)N[C@@H]2CCNC2)ccc(N2CCOC(CO)C2)c1-c1nnn[nH]1 (stereo partly drawn) [Example 103, 4-[2-(hydroxymethyl)morpholin-4-yl]-N1-[(3R)-pyrrolidin-3-yl]-3-(1H-tetrazol-5-yl)benzene-1,2-disulfonamide]
[1]
  IC50: 0.68 nM
[2]
  IC50: 3.46 nM
[3]
  IC50: 0.42 nM
[4]
  IC50: 0.59 nM
[5]
  CLB30016 E. coli MITC95 NDM: 3.13 µM
[6]
  IHMA599644 K. pneumoniae MITC95 VIM: 6.25 µM
[7]
  CL5741 S. marcescens MITC95 IMP: 3.13 µM
[8]
  MB9798 MITC95 P. aeruginosa uM Efflux WT: 3.13 µM
  Efflux ratio: 2.00
[9]
  MB9799 MITC95 P. aeruginosa uM Efflux Mutant: 1.56 µM

## NS(=O)(=O)c1c(S(=O)(=O)N[C@@H]2CCNC2)ccc(N2CCN(C(=O)CO)CC2)c1-c1nnn[nH]1 [Example 109, 4-[4-(hydroxyacetyl)piperazin-1-yl]-N1-[(3R)-pyrrolidin-3-yl]-3-(1H-tetrazol-5-yl)benzene-1,2-disulfonamide]
[1]
  IC50: 0.51 nM
[2]
  IC50: 2.21 nM
[3]
  IC50: 0.43 nM
[4]
  IC50: 1.9 nM
[5]
  CLB30016 E. coli MITC95 NDM: 3.13 µM
[6]
  IHMA599644 K. pneumoniae MITC95 VIM: 6.25 µM
[7]
  CL5741 S. marcescens MITC95 IMP: 3.13 µM
[8]
  MB9798 MITC95 P. aeruginosa uM Efflux WT: 3.13 µM
  Efflux ratio: 1.00
[9]
  MB9799 MITC95 P. aeruginosa uM Efflux Mutant: 3.13 µM

## NCC1CCN(c2ccc(S(=O)(=O)NC[C@@H](N)CN)c(S(N)(=O)=O)c2-c2nn[nH]n2)CC1 [Example 200, (S)-4-(4-(aminomethyl)piperidin-1-yl)-N1-(2,3-diaminopropyl)-3-(2H-tetrazol-5-yl)benzene-1,2-disulfonamide]
[1]
  IC50: 3.1 nM
[2]
  IC50: 4.57 nM
[3]
  IC50: 0.51 nM
[4]
  IC50: 8.28 nM
[5]
  CLB30016 E. coli MITC95 NDM: 0.78 µM
[6]
  IHMA599644 K. pneumoniae MITC95 VIM: 3.13 µM
[7]
  CL5741 S. marcescens MITC95 IMP: 1.56 µM
[8]
  MB9798 MITC95 P. aeruginosa uM Efflux WT: 50.00 µM
  Efflux ratio: 1.00
[9]
  MB9799 MITC95 P. aeruginosa uM Efflux Mutant: 50.00 µM

## NC[C@@H](O)CNS(=O)(=O)c1ccc(N2CCC(c3c[nH]cn3)CC2)c(-c2nnn[nH]2)c1S(N)(=O)=O [Example 169, (R)-4-(4-(1H-imidazol-4-yl)piperidin-1-yl)-N1-(3-amino-2-hydroxypropyl)-3-(1H-tetrazol-5-yl)benzene-1,2-disulfonamide]
[1]
  IC50: 0.23 nM
[2]
  IC50: 0.26 nM
[3]
  IC50: 0.1 nM
[4]
  IC50: 0.4 nM
[5]
  CLB30016 E. coli MITC95 NDM: 0.39 µM
[6]
  IHMA599644 K. pneumoniae MITC95 VIM: 2.34 µM
[7]
  CL5741 S. marcescens MITC95 IMP: 1.17 µM
[8]
  MB9798 MITC95 P. aeruginosa uM Efflux WT: 0.78 µM
  Efflux ratio: 1.00
[9]
  MB9799 MITC95 P. aeruginosa uM Efflux Mutant: 0.78 µM

## NC[C@@H](O)CNS(=O)(=O)c1ccc(N2CCC(n3ccnc3)CC2)c(-c2nnn[nH]2)c1S(N)(=O)=O [Example 174, (R)-4-(4-(1H-imidazol-1-yl)piperidin-1-yl)-N1-(3-amino-2-hydroxypropyl)-3-(2H-tetrazol-5-yl)benzene-1,2-disulfonamide]
[1]
  IC50: 0.69 nM
[2]
  IC50: 0.36 nM
[3]
  IC50: 0.07 nM
[4]
  IC50: 0.22 nM
[5]
  CLB30016 E. coli MITC95 NDM: 0.78 µM
[6]
  IHMA599644 K. pneumoniae MITC95 VIM: 3.13 µM
[7]
  CL5741 S. marcescens MITC95 IMP: 0.78 µM
[8]
  MB9798 MITC95 P. aeruginosa uM Efflux WT: 3.13 µM
  Efflux ratio: 2.00
[9]
  MB9799 MITC95 P. aeruginosa uM Efflux Mutant: 1.56 µM
